Measurements as given in article PMC8308678, “Treatment with Micafungin in a Preterm Neonate with an Invasive Candida parapsilosis Infection after a Severe Terlipressin-Induced Skin Necrosis” (Pathogens, 2021).
In brackets after ≈: the same amount, converted by molar mass. Read-outs that look alike come from different tables or passages of the source. Starred links: 1 amine or outer side, 2 acyl side, 3 side chain; linkers in the order of their positions; H or OH if unused. Positions of bridges follow the written chain, without caps; N, C: chain ends. Non-standard residues stand in square brackets, D forms with d. Residues, ends and D or L forms follow the SMILES beside them. *: point of attachment. hTyr(3S-OH,4S-OH,3'-OSO3H) = N[C@H](C(=O)O)[C@H](O)[C@@H](O)c1ccc(O)c(OS(=O)(=O)O)c1; pTerphenylCO(4''-OnC5H11) = CCCCCOc1ccc(-c2ccc(-c3ccc(C(=O)*)cc3)cc2)cc1; Orn(4R-OH,5R-OH) = O=C([C@H](C[C@@H](O)[C@@H](O)N[*:3])N[*:1])[*:2]; hTyr(3S-OH,4S-OH) = N[C@H](C(=O)O)[C@H](O)[C@@H](O)c1ccc(O)cc1; Pro(3S-OH,4S-Me) = C[C@H]1CN[C@H](C(=O)O)[C@H]1O; X1 = CCCCCOc1ccc(-c2cc(-c3ccc(C(=O)*)cc3)no2)cc1; Gln(3R-OH) = NC(=O)C[C@@H](O)[C@H](N)C(=O)O; Hyp = O=C(O)[C@@H]1C[C@@H](O)CN1

Assays:
Candida parapsilosis = experiment: microbe, parasite or virus in culture; format: cell-based; conditions: CLSI guidelines; for MIC: isolated Candida parapsilosis strain (cutaneous swab and urine culture); for Susceptibility of the isolated Candida strain: isolated Candida parapsilosis strain
Method: (§1) Cutaneous swab and urine culture both yielded Candida parapsilosis. The fungal load in urine was 1,000,000 CFU/mL. Susceptibility tests were performed according to the Clinical and Laboratory Standards Institute (CLSI) guidelines. Blood cultures resulted negative, but the child had been on antimicrobial therapy for several days. The isolated Candida strain was susceptible to micafungin (MIC, 0.5 µg/mL), anidulafungin (MIC, 2 µg/mL), fluconazole (MIC, 0.5 µg/mL), itraconazole (MIC, 0.06 µg/mL), voriconazole (MIC, <0.008 µg/mL) and amphotericin B (MIC, 0.5 µg/mL). Among the effective antifungals, we chose micafungin because of the feasibility of plasma concentration monitoring via heel stick capillary samples [8]. After given and obtained informed consent from the parents, both in relation to the high dosage of micafungin to be administered and monitored and to the participation in clinical trials and publications, micafungin was administered intravenously at a dose of 8 mg/kg/day; it was diluted in 0.9% saline solution at a concentration of 2 mg/mL and infused intravenously through epicutaneo-cava catheter in one hour. Plasma micafungin concentrations were measured by high performance liquid chromatography (HPLC) on the third day of the starting of therapy. The lower limit of detection (LLOD) of micafungin was 0.5 mg/L, and the lower limit of quantification (LLOQ) was 1 mg/L. (Table 1).

[1] = tested on: confirmed or suspected ICIs; conditions: 8 mg/kg/day; 35 neonates with confirmed or suspected ICIs; cited from earlier work
Source text: Invasive Candida infections (ICIs) are a major cause of morbidity and mortality among very preterm infants; Candida albicans is the most frequently occurring species, although Candida parapsilosis infections are increasingly reported in preterm neonates. Despite the high minimum inhibitory concentration (MIC) necessary for Candida parapsilosis eradication, echinocandins have a prominent role when an ICI occurs in very preterm infants. These patients often carry a central vascular catheter in which Candida parapsilosis forms a biofilm, due to its adherence properties that favo ...

[2] = Clinical tolerability of micafungin (case report); format: in vivo, human preterm neonate; conditions: 8 mg/kg/day; for Side effects / tolerability: baby with previous cholestasis
Method: (§2) Given the severe clinical conditions of our patient, the epicutaneo-cava catheter was difficult to replace safely. The systemic therapy allowed complete infection control. […] We monitored plasma concentration of micafungin on 0.3 mL heel puncture blood samples, as previously described, in order to avoid excessive blood draws in a patient of low weight and in such severe clinical conditions.

[3] = Plasma micafungin concentration monitoring by HPLC; format: in vivo, human preterm neonate; conditions: one patient
Method: as §1, §2

[4] = tested on: invasive Candida parapsilosis infection; experiment: Clinical treatment of invasive Candida parapsilosis infection (case report); format: in vivo, human preterm neonate; conditions: 8 mg/kg/day; extremely preterm neonate with invasive Candida parapsilosis infection
Method: as §1, with “1). […]” for “1).”

| Structure (SMILES) | MIC (Candida parapsilosis; read-out: MIC) [µg/mL] | Susceptibility of the isolated Candida strain (Candida parapsilosis) | MIC (Candida parapsilosis) [µg/mL] | further results |
| --- | --- | --- | --- | --- |
| OC(Cn1cncn1)(Cn1cncn1)c1ccc(F)cc1F [fluconazole] | 0.5 (≈ 1.63 µM) | susceptible |  |  |
| C[C@@H]1[C@H](O)[C@@H](C)/C=C/C=C/C=C/C=C/C=C/C=C/C=C/[C@H](O[C@@H]2O[C@H](C)[C@@H](O)[C@H](N)[C@@H]2O)C[C@@H]2O[C@](O)(C[C@@H](O)C[C@@H](O)[C@H](O)CC[C@@H](O)C[C@@H](O)CC(=O)O[C@H]1C)C[C@H](O)[C@H]2C(=O)O [amphotericin B] | 0.5 (≈ 0.541 µM) | susceptible |  |  |
| CCCCCOc1ccc(-c2ccc(-c3ccc(C(=O)N[C@H]4C[C@@H](O)[C@@H](O)NC(=O)[C@@H]5[C@@H](O)[C@@H](C)CN5C(=O)[C@H]([C@@H](C)O)NC(=O)[C@H]([C@H](O)[C@@H](O)c5ccc(O)cc5)NC(=O)[C@@H]5C[C@@H](O)CN5C(=O)[C@H]([C@@H](C)O)NC4=O)cc3)cc2)cc1 [anidulafungin] ({pTerphenylCO(4''-OnC5H11)}-[Orn(4R-OH,5R-OH)]T[Hyp][hTyr(3S-OH,4S-OH)]T[Pro(3S-OH,4S-Me)]; lactam 1-C; N-terminus assumed) |  | susceptible | 2 (≈ 1.75 µM) |  |
| CCCCCOc1ccc(-c2cc(-c3ccc(C(=O)N[C@H]4C[C@@H](O)[C@@H](O)NC(=O)[C@@H]5[C@@H](O)[C@@H](C)CN5C(=O)[C@H]([C@H](O)CC(N)=O)NC(=O)[C@H]([C@H](O)[C@@H](O)c5ccc(O)c(OS(=O)(=O)O)c5)NC(=O)[C@@H]5C[C@@H](O)CN5C(=O)[C@H]([C@@H](C)O)NC4=O)cc3)no2)cc1 [micafungin] (X1-[Orn(4R-OH,5R-OH)]T[Hyp][hTyr(3S-OH,4S-OH,3'-OSO3H)][Gln(3R-OH)][Pro(3S-OH,4S-Me)]; lactam 1-C) |  | susceptible | 0.5 (≈ 0.394 µM) | Response [1]: high response; Side effects / tolerability [2]: did not cause side effects; Side effects / tolerability ([2]; listed as Micafungin): well tolerated; Aspartate aminotransaminase and alanine aminotransaminase ([2]; rapidly returned within normal range after discontinuation of therapy): transient increase; Plasma Cmax/MIC ratio ([3]; 8 mg/kg/day micafungin dose): > 10; Cmax ([3]; human, in vivo, iv, 8 mg/kg/day i.v. over one hour, third day of therapy, plasma, HPLC, read-out: Plasma micafungin concentration, 1 h after infusion (C max)): 11800 ng/mL; level at -0.5 h ([3]; human, iv, 8 mg/kg/day i.v. over one hour, third day of therapy, plasma, HPLC, heel puncture blood samples, read-out: Plasma micafungin concentration, 30 min before infusion (C min)): 3730 ng/mL; level at 2 h ([3]; human, iv, 8 mg/kg/day i.v. over one hour, third day of therapy, plasma, HPLC, read-out: Plasma micafungin concentration, 2 h after infusion): 9700 ng/mL; level at 8 h ([3]; human, iv, 8 mg/kg/day i.v. over one hour, third day of therapy, plasma, HPLC, read-out: Plasma micafungin concentration, 8 h after infusion): 7900 ng/mL; Clinical efficacy [4]: effective |
| CCC(C)n1ncn(-c2ccc(N3CCN(c4ccc(OCC5COC(Cn6cncn6)(c6ccc(Cl)cc6Cl)O5)cc4)CC3)cc2)c1=O (stereo not shown) [itraconazole] | 0.06 (≈ 0.085 µM) | susceptible |  |  |
| C[C@@H](c1ncncc1F)[C@](O)(Cn1cncn1)c1ccc(F)cc1F [voriconazole] | < 0.008 | susceptible |  |  |
